Source: ChEMBL document CHEMBL3885881, “DrugMatrix”

Species: Rattus norvegicus
Test: DrugMatrix - Regimen: Daily Repeat
Assay type: toxicity, organism-based, Sprague-Dawley
Set-up: regimen Daily Repeat, gender Male, age 6-8 weeks
Details: in vivo, po, 1500 mg/kg, route oral GAVAGE, dose level High, vehicle .5 % CMC; for ABSOLUTE BASOPHIL / ABSOLUTE EOSINOPHIL / ABSOLUTE LYMPHOCYTE / ABSOLUTE MONOCYTE / ABSOLUTE SEGMENTED NEUTROPHIL / BASOPHIL / EOSINOPHIL / ERYTHROCYTE COUNT / HEMATOCRIT / HEMOGLOBIN / LEUKOCYTE COUNT / LYMPHOCYTE / MEAN CORPUSCULAR HEMOGLOBIN / MEAN CORPUSCULAR HEMOGLOBIN CONCENTRATION / MEAN CORPUSCULAR VOLUME / MONOCYTE / NEUTROPHIL / NUCLEATED RED BLOOD CELLS / PLATELET COUNT: tissue Blood
[1] = 72 h, tissue Plasma, time 3 day
[2] = 120 h, tissue Plasma, time 5 day

## CC(C)=CCC/C(C)=C/CO [GERANIOL]
72 h, time 3 day
  ABSOLUTE BASOPHIL: 0 CELLS/uL
  ABSOLUTE EOSINOPHIL: 0 CELLS/uL
  ABSOLUTE LYMPHOCYTE: 15609.33 CELLS/uL
  ABSOLUTE MONOCYTE: 78.67 CELLS/uL
  ABSOLUTE SEGMENTED NEUTROPHIL: 1378.67 CELLS/uL
  BASOPHIL: 0%
  EOSINOPHIL: 0%
  ERYTHROCYTE COUNT: 5.7 x10E6/uL
  HEMATOCRIT: 37.23%
  HEMOGLOBIN: 14.37 G/DL
  LEUKOCYTE COUNT: 17.07 x10E3/uL
  LYMPHOCYTE: 92%
  MEAN CORPUSCULAR HEMOGLOBIN: 25.2 pg
  MEAN CORPUSCULAR HEMOGLOBIN CONCENTRATION: 38.57 G/DL
  MEAN CORPUSCULAR VOLUME: 65.37 fL
  MONOCYTE: 0.33%
  NEUTROPHIL: 7.67%
  NUCLEATED RED BLOOD CELLS: 0.33 /100WBC
  PLATELET COUNT: 1276 x10E3/uL
[1]
  ALANINE AMINOTRANSFERASE: 47.33 u/L
  ALBUMIN: 4.4 G/DL
  ALKALINE PHOSPHATASE: 442 u/L
  ASPARTATE AMINOTRANSFERASE: 82 u/L
  BLOOD UREA NITROGEN: 13 mg/dL
  CARBON DIOXIDE: 29 mmol/L
  CHLORIDE: 100.67 MEQ/L
  CHOLESTEROL: 46.33 mg/dL
  CREATINE PHOSPHOKINASE: 471.33 u/L
  CREATININE: 0.25 mg/dL
  GLUCOSE: 162 mg/dL
  LACTATE DEHYDROGENASE: 193.67 u/L
  LIPASE: 9 u/L
  PHOSPHORUS: 14.7 mg/dL
  POTASSIUM: 7.11 MEQ/L
  SODIUM: 143.87 MEQ/L
  TOTAL BILIRUBIN: 0.13 mg/dL
  TOTAL PROTEIN: 5.93 G/DL
  URIC ACID: 2.07 mg/dL
120 h, time 5 day
  ABSOLUTE BASOPHIL: 0 CELLS/uL
  ABSOLUTE EOSINOPHIL: 0 CELLS/uL
  ABSOLUTE LYMPHOCYTE: 19247.33 CELLS/uL
  ABSOLUTE MONOCYTE: 1179 CELLS/uL
  ABSOLUTE SEGMENTED NEUTROPHIL: 2373.67 CELLS/uL
  BASOPHIL: 0%
  EOSINOPHIL: 0%
  ERYTHROCYTE COUNT: 6.01 x10E6/uL
  HEMATOCRIT: 36.67%
  HEMOGLOBIN: 14.67 G/DL
  LEUKOCYTE COUNT: 22.8 x10E3/uL
  LYMPHOCYTE: 84.67%
  MEAN CORPUSCULAR HEMOGLOBIN: 24.53 pg
  MEAN CORPUSCULAR HEMOGLOBIN CONCENTRATION: 40.03 G/DL
  MEAN CORPUSCULAR VOLUME: 61.2 fL
  MONOCYTE: 5%
  NEUTROPHIL: 10.33%
  NUCLEATED RED BLOOD CELLS: 0 /100WBC
  PLATELET COUNT: 1333 x10E3/uL
[2]
  ALANINE AMINOTRANSFERASE: 63 u/L
  ALBUMIN: 4.63 G/DL
  ALKALINE PHOSPHATASE: 302.67 u/L
  ASPARTATE AMINOTRANSFERASE: 95.67 u/L
  BLOOD UREA NITROGEN: 18 mg/dL
  CARBON DIOXIDE: 32 mmol/L
  CHLORIDE: 102.33 MEQ/L
  CHOLESTEROL: 85.67 mg/dL
  CREATINE PHOSPHOKINASE: 441 u/L
  CREATININE: 0.16 mg/dL
  GLUCOSE: 143 mg/dL
  LACTATE DEHYDROGENASE: 772 u/L
  LIPASE: 10 u/L
  PHOSPHORUS: 12.2 mg/dL
  POTASSIUM: 6.32 MEQ/L
  SODIUM: 142.2 MEQ/L
  TOTAL BILIRUBIN: 0.1 mg/dL
  URIC ACID: 2 mg/dL
